Assays:
PAPD5 [1] = target: T1, PAPD5 (Homo sapiens, UniProt Q8NDF8); assay: Y3H ULTImate YChemH 1-by-1 validation (prey fragments, full length proteins); assay type: binding; settings: PAPD5 var1 full length; FIG. 2
T1 construct: full length proteins for PAPD5 and PAPD7 were synthesized and used for 1-by-1 validation; expressed in transfected cells; host or cells: diploid yeast (YHGX13 with the prey plasmid mated to YPT6AT with the DHFR hook)
Method: (§1) In this validation step each one identified fragment prey and one chemical probe (HBX129653, HBX129654) is tested in a 1-by-1 experiment. The plasmids from 3 selected preys from the screening library were extracted from the yeast cells, amplified in E. coli and re-transformed into YHGX13 yeast cells. For each interaction, DO1, 1/10, 1/100 and 1/1000 of the diploid yeast culture expressing both hook and prey constructs were spotted on a selective medium without tryptophan, leucine and histidine and supplemented with the chemical probe and FK506. Interactions were tested in duplicate. One plate was used per chemical compound and concentration (DMSO, 5, 10 and 20 μM of HBX129653, 5, 10 and 20 μM of HBX129654, 5 μM of HBX24786 Trimethoprim (TMP) and 5 μM of HBX129634 (TMP-PEG5-OH)). Plates were incubated at 30° C. for 3 days.
(§2) The coding sequence of full-length PAPD5var1 (NM_001040284.2) and PAPD7varX1 (XM_005248234.2) were reconstituted from an N-terminal codon-optimized gene fragment (to remove high GC content) and commercially available clones of the C-terminal regions of the proteins and cloned in frame with the Gal4 Activation Domain (AD) into plasmid pP7 (AD-Prey), derived from the original pGADGH (Bartel et al., 1993 in Cellular interactions in development: A practical approach. ed. Hartley, D. A., Oxford University Press, Oxford, pp. 153-179). The constructs were checked by sequencing the entire inserts. For each prey, a mini-mating was carried out between YHGX13 (Y187 ade2-101::loxP-kanMX-loxP, mata) transformed with the prey plasmids and YPT6AT yeast cells (mata) transformed with the DHFR hook (Dihydrofolate reductase) to produce a diploid yeast culture. For each interaction, DO1, 1/10, 1/100 and 1/1000 of the diploid yeast culture expressing both hook and prey constructs were spotted on a selective medium without tryptophan, leucine and histidine and supplemented with the chemical probe and FK506. Interactions were tested in duplicate. One plate was used per chemical compound and concentration (DMSO, 5, 10 and 20 μM of HBX129653, 5, 10 and 20 μM of HBX129654, 5 μM of HBX24786 Trimethoprim (TMP) and 5 μM of HBX129634 (TMP-PEG5-OH)). Plates were incubated at 30° C. for 3 days.
(§3) In a first validation step three fragments identified in the first screen were selected for the 1-by-1 validation assay (as described in the Materials and Method section) and tested at three different concentrations ([…]) (Table 11).
(§4) In a second validation step, full length proteins for PAPD5 and PAPD7 were synthesized and used for 1-by-1 validation (as described in the Materials and Method section) with DHQ and THP (Table 12).

PAPD7 [2] = assay: as above; assay type: binding, Human; settings: PAPD7 fragment; already at the lowest tested concentration (5 of 5, 10, 20 μM); FIG. 1
Method: as §1, §2, §3, §4

PAPD7 [3] = target: T2, PAPD7 (Homo sapiens, UniProt Q5XG87); assay: as above; assay type: binding; settings: PAPD7 full length; FIG. 2
T2 construct: full length proteins for PAPD5 and PAPD7 were synthesized and used for 1-by-1 validation; expressed in transfected cells; host or cells: diploid yeast (YHGX13 with the prey plasmid mated to YPT6AT with the DHFR hook)
Method: as §1, §2, §3, §4

PAPD5 [4] = assay: as above; assay type: binding, Human; settings: PAPD5 variant 1 and variant 2 fragments; already at the lowest tested concentration (5 of 5, 10, 20 μM); FIG. 1
Method: as §1, §2, §3, §4

PAPD5 [5] = target: T1, PAPD5; assay: Y3H ULTImate YChemH competition with free compound; assay type: binding; settings: PAPD5 var1 fragment and full length; probe HBX129653 or HBX129654 1 μM; free compound 0-20 μM; FIG. 3-6
Method: (§5) The competition assays were performed on selective medium at 8 concentrations of the free compound (0, 0.25, 0.5, 1, 2, 5, 10 and 20 μM) and a consistent concentration for the tagged Y3H-compound (1 μM).

PAPD7 [6] = target: T2, PAPD7; assay: Y3H ULTImate YChemH competition with free compound; assay type: binding; settings: PAPD7 varX1 fragment and full length; probe HBX129653 or HBX129654 1 μM; free compound 0-20 μM; FIG. 3-6
Method: as §5

T2 sequence (Q5XG87 whole entry): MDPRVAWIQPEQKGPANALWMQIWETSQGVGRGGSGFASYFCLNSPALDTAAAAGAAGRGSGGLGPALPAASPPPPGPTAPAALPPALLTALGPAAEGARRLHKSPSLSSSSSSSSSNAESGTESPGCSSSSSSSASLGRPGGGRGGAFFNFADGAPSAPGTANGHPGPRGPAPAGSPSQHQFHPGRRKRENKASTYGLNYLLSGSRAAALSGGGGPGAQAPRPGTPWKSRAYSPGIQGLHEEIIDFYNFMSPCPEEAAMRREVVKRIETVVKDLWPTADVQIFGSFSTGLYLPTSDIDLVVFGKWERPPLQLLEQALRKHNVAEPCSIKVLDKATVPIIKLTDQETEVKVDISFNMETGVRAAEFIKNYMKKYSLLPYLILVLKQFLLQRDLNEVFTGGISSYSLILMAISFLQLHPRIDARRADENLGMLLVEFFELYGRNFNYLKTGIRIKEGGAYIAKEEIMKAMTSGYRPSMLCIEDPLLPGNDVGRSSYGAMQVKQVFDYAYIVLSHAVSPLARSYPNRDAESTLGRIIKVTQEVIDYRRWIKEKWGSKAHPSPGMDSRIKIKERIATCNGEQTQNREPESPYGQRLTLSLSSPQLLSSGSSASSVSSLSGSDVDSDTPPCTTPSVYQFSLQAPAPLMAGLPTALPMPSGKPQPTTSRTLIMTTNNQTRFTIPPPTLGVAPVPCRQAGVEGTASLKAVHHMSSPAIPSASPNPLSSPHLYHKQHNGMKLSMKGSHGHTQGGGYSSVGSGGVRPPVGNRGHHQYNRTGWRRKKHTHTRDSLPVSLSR
T1 sequence (Q8NDF8 1-698 isoform Q8NDF8-5): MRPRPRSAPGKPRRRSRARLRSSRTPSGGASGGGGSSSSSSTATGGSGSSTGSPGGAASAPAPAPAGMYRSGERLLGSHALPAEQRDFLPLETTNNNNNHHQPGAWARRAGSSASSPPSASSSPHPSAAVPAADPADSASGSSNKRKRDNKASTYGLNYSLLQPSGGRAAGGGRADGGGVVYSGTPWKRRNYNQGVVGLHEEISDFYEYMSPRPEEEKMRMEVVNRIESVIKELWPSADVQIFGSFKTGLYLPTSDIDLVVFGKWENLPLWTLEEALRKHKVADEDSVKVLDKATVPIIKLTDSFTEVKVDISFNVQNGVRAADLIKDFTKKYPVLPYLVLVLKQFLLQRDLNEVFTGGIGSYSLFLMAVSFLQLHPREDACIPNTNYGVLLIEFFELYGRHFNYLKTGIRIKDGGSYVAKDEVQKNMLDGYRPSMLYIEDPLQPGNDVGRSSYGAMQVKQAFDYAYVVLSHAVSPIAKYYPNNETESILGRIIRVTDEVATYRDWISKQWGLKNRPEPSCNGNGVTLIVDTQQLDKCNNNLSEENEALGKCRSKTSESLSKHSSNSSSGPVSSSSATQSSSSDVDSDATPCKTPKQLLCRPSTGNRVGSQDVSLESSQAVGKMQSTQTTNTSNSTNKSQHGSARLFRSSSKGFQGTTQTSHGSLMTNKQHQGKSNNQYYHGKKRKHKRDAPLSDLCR

Row | Compound | 1-by-1 validation, interaction with full length protein (PAPD5 [1]) | 1-by-1 validation of prey fragments as binders (PAPD7 [2]) | 1-by-1 validation, interaction with full length protein (PAPD7 [3]) | 1-by-1 validation of prey fragments as binders (PAPD5 [4]) | competition of free compound with the chemical probe (PAPD5 [5]) | competition of free compound with the chemical probe (PAPD7 [6])
1 | COCCCOc1cc2c(cc1Cl)-c1cc(=O)c(C(=O)O)cn1[C@H](C(C)C)C2 [MOL653] | confirmed at the lowest tested concentration | validated as specific binders | confirmed at the lowest tested concentration | validated as specific binders | competition could be observed | competition could be observed
2 | COc1cc(N2CCc3nc(-c4ncccn4)ncc3[C@H]2C)cc(F)c1F [MOL654] | confirmed at the lowest tested concentration | validated as specific binders | confirmed at the lowest tested concentration | validated as specific binders | competition could be observed | competition could be observed
